Target: hERG (Potassium voltage-gated channel subfamily H member 2) (Homo sapiens, UniProt Q12809)
Assay: Electrophysiological Assay
Conditions: CHO cells stably expressing hERG potassium channels
Description: CHO (Chinese Hamster Ovary) cells stably expressing hERG potassium channels were taken, and hERG potassium channel currents were recorded at room temperature by means of a whole-cell patch-clamp technique. A glass microelectrode was formed by pulling a glass electrode blank (BF150-86-10, Sutter) with a glass microelectrode puller. The tip resistance was about 2-5 MΩ after perfusion of a pippette solution. The glass microelectrode could be connected to a patch clamp amplifier by inserting the glass microelectrode into an amplifier probe. Clamping voltages and data recording were controlled and recorded by a computer with pClamp 10 software, with a sampling frequency of 10 kHz and a filtering frequency of 2 kHz. After the whole-cell recording was obtained, the cells were clamped at −80 mV, and the step voltage evoking hERG potassium current (I hERG) was changed from −80 mV to +20 mV by giving a 2 s depolarization voltage and then repolarized to −50 mV for 1 s, and returned to −80 mV. Such voltage stimulation was given every 10 s, and the administration process was started after it was determined that the hERG potassium currents were stable (1 min). The compound at each test concentration was given at least 1 min, and at least 2 cells (n≥2) were tested for each concentration.

hERG (Potassium voltage-gated channel subfamily H member 2), sequence (Q12809 whole entry): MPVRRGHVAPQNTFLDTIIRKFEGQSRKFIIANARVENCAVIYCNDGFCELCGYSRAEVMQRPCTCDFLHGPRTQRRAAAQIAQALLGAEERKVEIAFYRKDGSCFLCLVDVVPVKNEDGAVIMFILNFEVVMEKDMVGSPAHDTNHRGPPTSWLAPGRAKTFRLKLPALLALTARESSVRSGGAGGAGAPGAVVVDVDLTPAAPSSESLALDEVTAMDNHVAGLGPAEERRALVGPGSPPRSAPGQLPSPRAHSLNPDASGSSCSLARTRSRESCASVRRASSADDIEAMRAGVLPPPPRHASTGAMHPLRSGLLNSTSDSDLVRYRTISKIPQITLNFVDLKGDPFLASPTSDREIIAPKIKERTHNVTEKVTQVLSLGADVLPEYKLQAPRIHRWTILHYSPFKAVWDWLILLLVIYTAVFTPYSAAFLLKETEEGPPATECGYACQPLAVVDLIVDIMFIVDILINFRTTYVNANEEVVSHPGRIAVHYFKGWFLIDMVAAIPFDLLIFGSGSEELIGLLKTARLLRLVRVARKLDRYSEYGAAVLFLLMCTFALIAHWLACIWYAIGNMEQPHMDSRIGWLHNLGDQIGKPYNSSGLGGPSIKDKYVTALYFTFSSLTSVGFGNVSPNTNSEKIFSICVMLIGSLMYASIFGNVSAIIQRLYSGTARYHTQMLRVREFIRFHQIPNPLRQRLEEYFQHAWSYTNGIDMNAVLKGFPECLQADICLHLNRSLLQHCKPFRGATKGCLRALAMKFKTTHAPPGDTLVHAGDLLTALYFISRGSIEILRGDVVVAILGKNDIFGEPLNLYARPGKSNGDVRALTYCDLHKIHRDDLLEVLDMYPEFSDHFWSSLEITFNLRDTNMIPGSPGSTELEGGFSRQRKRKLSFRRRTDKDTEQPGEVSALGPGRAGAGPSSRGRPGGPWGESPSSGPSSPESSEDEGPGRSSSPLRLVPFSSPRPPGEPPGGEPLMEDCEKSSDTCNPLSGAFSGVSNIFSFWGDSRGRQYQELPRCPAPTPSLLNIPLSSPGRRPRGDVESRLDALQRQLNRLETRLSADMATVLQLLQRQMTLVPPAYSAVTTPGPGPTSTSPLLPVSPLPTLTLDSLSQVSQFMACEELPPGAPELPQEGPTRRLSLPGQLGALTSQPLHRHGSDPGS

Compound: CN1CCC(N(Cc2ccc(F)cn2)C(=O)NCc2ccc3c(c2)CC(C(F)(F)F)O3)CC1 (stereo unspecified) [US20230348421, Compound 89]
- IC50: 2050 nM

Reference: BindingDB's records for patent US20230348421 (Geneora Pharma (Shijiazhuang) Co., 2023)
